The text below walks through data of US8975442B2, “Process for the preparation of and crystalline forms of optical enantiomers of modafinil” (Teva Sante, priority 2002, dated 2015).

Type in all cases: physicochemical
Data set [1] in a line: Solubility of modafinil acid in ethanol. An excerpt:
Solubility of the Racemic Mixture in Ethanol:

Data set [2] is described as follows: Solubility of modafinil acid in 2-methoxyethanol. An excerpt: Solubility of the Racemic Mixture in 2-Methoxyethanol: […]
A short description of data set [3]: Solubility of modafinil acid in methanol. An excerpt: Solubility of the Racemic Mixture in Methanol:

Consider `O=C(O)C[S+]([O-])C(c1ccccc1)c1ccccc1` (racemic) [(±)-modafinil acid, (±)-benzhydrylsulphinylacetic acid], for which the Solubility by mass in data set [1] (10.0 °C) is recorded as 3.0%; in data set [1] (20.0 °C), 4.1%; in data set [1] (30.0 °C) it was 5.96%; in data set [2] (10.0 °C), 7.4%; in data set [2] (20.0 °C), 8%; in data set [2] (30.0 °C), 13.5%. In addition, the Solubility by mass in data set [2] (40.0 °C) was 16%; in data set [3] (10.0 °C) it was 7.4%; in data set [3] (20.0 °C), 9.7%; in data set [3] (30.0 °C) it was 13.9%; in data set [3] (40.0 °C), 25.7%. Besides, the entries for the “ratio α (ratio of solubilities s(±)/s(+))” value in data set [1] (20 °C), in data set [2] (20 °C) and in data set [3] (20 °C) were 2.06, 2.53 and 2.53, respectively.

As for `O=C(O)C[S+]([O-])C(c1ccccc1)c1ccccc1` (single isomer, unassigned; (+)) [(+)-antipode], the Solubility by mass worked out at 1.99% in data set [1] (20.0 °C), 4% in data set [2] (20.0 °C) and 4.9% in data set [3] (20.0 °C).
